Assay results: patent publication US20220411495A1, “POSITIVE ALLOSTERIC MODULATORS OF THE CALCIUM-SENSING RECEPTOR” (VIB VZW, priority 2019, published 2022)

Biological target: T1, CaSR 7-transmembrane domain allosteric binding site (Homo sapiens, UniProt P41180)
T1 sequence (P41180 20-1078): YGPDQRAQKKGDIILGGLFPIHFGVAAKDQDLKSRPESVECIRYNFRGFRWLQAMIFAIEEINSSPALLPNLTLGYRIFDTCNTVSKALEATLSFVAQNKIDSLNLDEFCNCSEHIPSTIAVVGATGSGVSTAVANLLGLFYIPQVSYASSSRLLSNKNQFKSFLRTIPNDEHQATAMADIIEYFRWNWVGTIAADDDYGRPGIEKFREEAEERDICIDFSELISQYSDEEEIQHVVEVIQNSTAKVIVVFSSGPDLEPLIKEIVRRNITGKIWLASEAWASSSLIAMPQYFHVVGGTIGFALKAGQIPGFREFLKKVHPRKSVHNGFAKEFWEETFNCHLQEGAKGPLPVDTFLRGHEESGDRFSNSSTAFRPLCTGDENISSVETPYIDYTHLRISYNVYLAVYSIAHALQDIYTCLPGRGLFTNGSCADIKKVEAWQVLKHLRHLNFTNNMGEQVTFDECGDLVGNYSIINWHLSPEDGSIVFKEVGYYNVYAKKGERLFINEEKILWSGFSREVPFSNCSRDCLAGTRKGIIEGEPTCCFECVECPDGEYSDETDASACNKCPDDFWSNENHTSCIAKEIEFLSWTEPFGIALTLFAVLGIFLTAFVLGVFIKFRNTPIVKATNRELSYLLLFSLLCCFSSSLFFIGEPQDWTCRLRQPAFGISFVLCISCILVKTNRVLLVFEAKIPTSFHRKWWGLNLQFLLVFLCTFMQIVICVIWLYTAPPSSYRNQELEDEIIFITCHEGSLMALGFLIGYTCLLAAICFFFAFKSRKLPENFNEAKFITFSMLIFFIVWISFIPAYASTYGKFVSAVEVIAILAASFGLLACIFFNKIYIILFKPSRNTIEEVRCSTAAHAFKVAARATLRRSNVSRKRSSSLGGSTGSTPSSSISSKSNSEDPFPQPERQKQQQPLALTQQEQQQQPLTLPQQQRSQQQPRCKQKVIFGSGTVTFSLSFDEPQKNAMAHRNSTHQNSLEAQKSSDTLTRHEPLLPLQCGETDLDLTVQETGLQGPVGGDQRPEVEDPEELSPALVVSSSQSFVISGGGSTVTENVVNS
Assay: [3H]evocalcet radioligand displacement
Method: For the seven different nanobodies with potencies in the 10 to 600 nM range, further characterization of their recognition site on the CaSR antigen was performed, since the identification of the nanobody binding-sites at the CaSR is key to understand their interaction and mode-of-action at a molecular and structural level, and will further aid in the development of second-generation nanobodies with enhanced pharmacological parameters. Nanobodies belonging to each family of the five different nanobody families are expected to interact with distinct regions of the CaSR.

For `CC(C)(Cc1ccc2ccccc2c1)NC[C@@H](O)COc1cccc(Cl)c1C#N` [NPS 2143], the “Displacement of [3H]evocalcet binding” value was “did displace”.
